According to patent US5273991A, “Imidazole-containing compositions and methods of use thereof analogs of distamycin” (Research Corporation Technologies, Inc., priority 1992, dated 1993):

Key:
1GROV1 = experiment: NCI cytotoxicity screen (SRB); format: cell-based, human
UACC-62 = experiment: NCI cytotoxicity screen (SRB); format: cell-based, human
SN12C = experiment: NCI cytotoxicity screen (SRB); format: cell-based, human
UACC-257 = experiment: NCI cytotoxicity screen (SRB); format: cell-based, human
HOP-18 = experiment: NCI cytotoxicity screen (SRB); format: cell-based, human; settings: subsequent test date
OVCAR-8 = experiment: NCI cytotoxicity screen (SRB); format: cell-based, human
VO-31 = experiment: NCI cytotoxicity screen (SRB); format: cell-based, human
calf thymus DNA = experiment: circular dichroism (CD) titration, calf thymus DNA; format: binding; settings: for isobestic point: calf thymus DNA; for binding site size: from saturation point r'~0.25; for saturation point r': moles of drug to moles of DNA base pairs
Method: The DNA binding properties of the present compounds were assessed by circular dichroism (CD) titration experiments. Methods for CD titration can be found, for example, in Zimmer et al. (1986) Prog. Biophys. Molec. Biol 47, 31. The conformation of DNA can be readily determined by CD experiments, and for B-DNA, characteristic positive and negative Cotton effects are observed at 260 and 245 nm, respectively.
The interaction of Compounds 6-10 to a number of DNAs [calf thymus, poly(dA dT) and poly(dG dC)] were analyzed by CD titration studies. All the CD titration experiments were performed using identical procedures, concentrations of DNA, and increments of drug:DNA ratios (or `r`, i.e. moles of drug to moles of DNA base pairs). Therefore, the differences observed in the CD spectra for the titration of each of the compounds to the polydeoxynucleotides may be directly compared to reflect their DNA binding properties.
All experiments were performed with a continuous flow of nitrogen purging the polarimeter. A 1 mm path length jacketed cell was used and all experiments were done at room temperature. Initially, DNA [0.02 μ moles (base pairs), 130 μL] was placed in the cell and the spectrum of the DNA alone was collected. Aliquots of drug were added and the spectra collected. The drug solutions were 1 mM and amounts of the drug added correspond to a drug to base pair ratio of 0.05, 0.10, 0.15, 0.20, 0.25, 0.30, 0.40, 0.50, 0.60, 0.80, 1.00. The scan parameters were set and standard for all experiments. The spectra were collected from 400 nm to 200 nm. The sensitivity was set at 1 mdeg and the scan speed was set at 20 nm per minute. Three scans were accumulated and automatically averaged by the computer. The λmax and ellipticity (mdeg) for each spectrum were collected from the raw scans and the final plots were smoothed by the noise reduction program on the computer. […] The induced CD band is presumably due to the uv absorption π to π^* transition of the drug in the drug:DNA complex. […] Therefore interaction of these drugs with DNA causes only minor conformational changes in the double helix.

CCRF-DEM = experiment: NCI cytotoxicity screen (SRB); format: cell-based, human; settings: 48 h; Leukemia CCRF-DEM

Molecule `CN(C)CCNC(=O)c1nc(NC(=O)c2nc(NC(=O)c3ccc(N(CCCl)CCCl)cc3)cn2C)cn1C` [Compound 6, N-(N',N'-dimethylaminoethyl)-1-methyl-4-{4-[4,4-bis(2-chloroethyl)aminobenzamido]-1-methylimidazole-2-carboxamido}imidazole-2-carboxamide] has an IC50 (1GROV1; 1GROV1, subsequent test date) of 59.6 µM, an IC50 (1GROV1; 48 h, Ovarian Cancer 1GROV1) of 50 µM and an IC50 (UACC-62; 48 h, Melanoma UACC-62) of 7.61 µM. It also gave an IC50 (UACC-62; UACC-62, subsequent test date) of 59.7 µM, an IC50 (SN12C; 48 h, Renal Cancer SN12C) of 15.6 µM and an IC50 (SN12C; SN12C, subsequent test date) of 39.9 µM. The IC50 (UACC-257; 48 h, Melanoma UACC-257) was 7.03 µM, the IC50 (UACC-257; UACC-257, subsequent test date) was 57.6 µM and the IC50 (HOP-18) was 10.2 µM. It also gave an IC50 (OVCAR-8; 48 h, Ovarian Cancer OVCAR-8) of 45.3 µM, an IC50 (OVCAR-8; OVCAR-8, subsequent test date) of 20.8 µM and an IC50 (VO-31; 48 h, Renal Cancer VO-31) of 59.2 µM. For the same molecule, the IC50 (VO-31; VO-31, subsequent test date) was 57.9 µM, the “negative CD band, ellipticity” value (calf thymus DNA; 310 nm, r'=0.2, low drug concentration) was 0.2 mdeg and the “negative CD band, ellipticity” value (calf thymus DNA; 315 nm, r'>0.4, higher drug concentrations) was ~ 3 mdeg. For the same molecule, the “weak positive CD band, ellipticity” value (calf thymus DNA; 340 nm, r'=0.2, low drug concentration) was 0.8 mdeg, the isobestic point (calf thymus DNA) was 320 nm and the binding site size (calf thymus DNA) was “about four”. For the same molecule, the “saturation point r'” value (calf thymus DNA) was ~ 0.25 and the “positive CD band at 340 nm, in words” value (calf thymus DNA; r'>0.4, higher drug concentrations) was “disappeared”.
Work on `CN(C)CCNC(=O)c1nc(NC(=O)c2nc(NC(=O)c3nc(NC(=O)c4ccc(N(CCCl)CCCl)cc4)cn3C)cn2C)cn1C` [Compound 7, N-(N',N'-dimethylaminoethyl)-1-methyl-4-{1-methyl-4-[4-(4,4-bis-(2-chloroethyl)aminobenzamido)-1-methylimidazole-2-carboxamido]imidazole-2-carboxamido}imidazole-2-carboxamide] yielded an IC50 (SN12C; SN12C, subsequent test date) of 0.61 µM, an IC50 (VO-31; 48 h, Renal Cancer VO-31) of over 100 µM and an IC50 (VO-31; VO-31, subsequent test date) of 96.6 µM. The “weak negative CD band, ellipticity” value (calf thymus DNA; 335 nm, r'=0.2) was 0.5 mdeg, the isobestic point (calf thymus DNA) was 300 nm and the binding site size (calf thymus DNA) was “four”. The “saturation point r'” value (calf thymus DNA) was ~ 0.25.
`CN(C)CCNC(=O)c1nc(NC(=O)c2nc(NC(=O)c3nc(NC(=O)CCCc4ccc(N(CCCl)CCCl)cc4)cn3C)cn2C)cn1C` [Compound 10, N-(N',N'-dimethylaminoethyl)-1-methyl-4-{1-methyl-4-[4-(4,4-bis(2-chloroethyl)aminophenyl-1-butanamido)-1-methylimidazole-2-carboxamido]imidazole-2-carboxamido}imidazole-2-carboxamide] gave an IC50 (CCRF-DEM) of 9.67 µM.
